The values below come from PMC11844072, “Novel 5,6-dichlorobenzimidazole derivatives as dual BRAFWT and BRAFV600E inhibitors: design, synthesis, anti-cancer activity and molecular dynamics simulations” (BMC Chemistry, 2025).

The test system of series [1] is HSF cell line. Kind of series: Cytotoxicity on HSF normal cell line (SRB assay). Format: cell-based. The conditions noted are these: HSF normal human skin fibroblast; mean of three ± SD. Here is the method: The dichlorobenzimidazole derivative 10h was tested in Nawah scientific—Cairo—Egypt for its cytotoxic activity on HSF cell line as stated in the Additional file A [53, 54].
6. Analysis of 10h on HSF normal cell line
Human Skin Fibroblast (HSF) was obtained from Nawah Scientific Inc., (Mokatam, Cairo, Egypt). Cells were maintained in DMEM media supplemented with […] of streptomycin, 100 units/mL of penicillin and 10% of heat-inactivated fetal bovine serum in humidified, 5% (v/v) CO2atmosphere at 37 °C. Cell viability was assessed by SRB assay. Aliquots of 100 μL cell suspension (5x10^3 cells) were in 96-well plates and incubated in complete media for 24 h. Cells were treated with another aliquot of 100 μL media containing drugs at various concentrations.
After drug exposure, cells were fixed by replacing media with 150 μL of 10% TCA and incubated at 4 °C for 1 h. The TCA solution was removed, and the cells were washed 5 times with distilled water. Aliquots of 70 μL SRB solution (0.4% w/v) were added and incubated in a dark place at room temperature for 10 min. Plates were washed 3 times with 1% acetic acid and allowed to air-dry overnight. Then, 150 μL of TRIS (10 mM) was added to dissolve protein-bound SRB stain; the absorbance was measured at 540 nm using an Infinite F50 microplate reader (TECAN, Switzerland).
6.2. Dose response curve of 10h on HSF normal cell line
Figure 66. […]

Series [2] relates to HT29 cell line. Briefly: Cell cycle analysis (PI flow cytometry). Format: cell-based, human. As to the method: 7. Analysis of cell cycle distribution
HT29: Colon Cancer was obtained from Nawah Scientific Inc., (Mokatam, Cairo, Egypt). Cells were maintained in DMEM media supplemented with […] of streptomycin, 100 units/mL of penicillin and 10% of heat-inactivated fetal bovine serum in humidified, 5% (v/v) CO 2 atmosphere at 37 °C. After treatment with test compound 8m for 48h, cells (10^5 cells) are collected by trypsinization and washed twice with ice-cold PBS (pH 7.4). Cells are re-suspended in two milliliters of 60% ice-cold ethanol and incubated at 4 °C for 1h for fixation. Fixed cells are washed twice again with PBS (pH 7.4) and re-suspended in 1 mL of PBS containing 50 μg/mL RNAase A and 10 μg/mL propidium iodide (PI). After 20 min of incubation in dark at 37 °C, cells are analyzed for DNA contents using flow cytometry analysis using FL2 (λex/em 535/617 nm) signal detector (ACEA Novocyte™ flowcytometer, ACEA Biosciences Inc., San Diego, CA, USA). For each sample, 12,000 events are acquired. Cell cycle distribution is calculated using ACEA NovoExpress™ software (ACEA Biosciences Inc., San Diego, CA, USA). […]

The subject of series [3] is HT29 cell line. Briefly: Apoptosis assay (Annexin V-FITC/PI). The format is cell-based, human. As to the method:
As stated in the Additional file A, the populations of apoptotic and necrotic cells of HT29 cell line were detected after treatment with 10h employing Annexin V-FITC apoptosis detection kit (For further details see Additional file A). […]
HT29: Colon Cancer was obtained from Nawah Scientific Inc., (Mokatam, Cairo, Egypt). […]
Apoptosis and necrosis cell populations are determined using Annexin V-FITC apoptosis detection kit (Abcam Inc., Cambridge Science Park, Cambridge, UK) coupled with 2 fluorescent channels flowcytometry. After treatment with test compounds for 48h, cells (10^5 cells) are collected by trypsinization and washed twice with ice-cold PBS (pH 7.4). Then, cells are incubated in dark with 0.5 ml of Annexin V-FITC/PI solution for 30 min in dark at room temperature according to manufacturer protocol. After staining, cells are injected via ACEA Novocyte™ flowcytometer (ACEA Biosciences Inc., San Diego, CA, USA) and analysed for FITC and PI fluorescent signals using FL1 and FL2 signal detector, respectively (λex/em 488/530 nm for FITC and λex/em 535/617 nm for PI). For each sample, 12,000 events are acquired and positive FITC and/or PI cells are quantified by quadrant analysis and calculated using ACEA NovoExpress™ software (ACEA Biosciences Inc., San Diego, CA,

Series [4] concerns the target BRAFV600E (Homo sapiens, UniProt P15056, V600E). Briefly: BRAFV600E kinase assay kit (Kinase-Glo Max luminescence).
Method: The inhibitory activity against different kinases was determined using kinase kits (BRAF WT
Glo Max luminescence kinase assay kit (Promega).
The assay was carried out according to the protocol provided by the manufacturer. A stock solution of the synthesized derivatives in 100% DMSO was prepared. Subsequently, the compounds were diluted to 10% DMSO.
A master mixture was prepared according to the number of wells. For BRAF assay each well include 6 μl of 5x Kinase Buffer 1 + 1 μl of ATP (500 μM) + 10 μl of 5X Raf substrate + 8 μl of distilled water. 1x Kinase buffer 1 was prepared by mixing 600 μl of 5x Kinase Buffer 1 with 2400 μl water to give 3 mL. Kinases were thawed on ice and were diluted with 1x Kinase Buffer 1. […]
The plate was incubated at 30 °C for 45 min. Subsequently, 50 μl of Kinase-Glo Max luminescence reagent was added to each well and the plate was covered with aluminum foil and incubated at room temperature for 15 min. Finally, the luminescence was recorded using multimode microplate reader. […]
The luminescence data were analyzed as follows. The difference between luminescence intensities in the absence of kinase (Lu t) and in the presence of kinase (Lu c) was defined as 100 %
calculated as: % activity = {(Lu t - Lu)/(Lut - Luc)} ×100%. The concentration of the test compounds required to reduce the kinase activity by 50% was determined from dose-response curves and
Setting [5] is: HT29, 10h at its GI50 concentration, 48h.
The mark [6] stands for this setting: HT29, at its GI50 concentration, 48h.

Chain of BRAFV600E (P15056 whole entry V600E): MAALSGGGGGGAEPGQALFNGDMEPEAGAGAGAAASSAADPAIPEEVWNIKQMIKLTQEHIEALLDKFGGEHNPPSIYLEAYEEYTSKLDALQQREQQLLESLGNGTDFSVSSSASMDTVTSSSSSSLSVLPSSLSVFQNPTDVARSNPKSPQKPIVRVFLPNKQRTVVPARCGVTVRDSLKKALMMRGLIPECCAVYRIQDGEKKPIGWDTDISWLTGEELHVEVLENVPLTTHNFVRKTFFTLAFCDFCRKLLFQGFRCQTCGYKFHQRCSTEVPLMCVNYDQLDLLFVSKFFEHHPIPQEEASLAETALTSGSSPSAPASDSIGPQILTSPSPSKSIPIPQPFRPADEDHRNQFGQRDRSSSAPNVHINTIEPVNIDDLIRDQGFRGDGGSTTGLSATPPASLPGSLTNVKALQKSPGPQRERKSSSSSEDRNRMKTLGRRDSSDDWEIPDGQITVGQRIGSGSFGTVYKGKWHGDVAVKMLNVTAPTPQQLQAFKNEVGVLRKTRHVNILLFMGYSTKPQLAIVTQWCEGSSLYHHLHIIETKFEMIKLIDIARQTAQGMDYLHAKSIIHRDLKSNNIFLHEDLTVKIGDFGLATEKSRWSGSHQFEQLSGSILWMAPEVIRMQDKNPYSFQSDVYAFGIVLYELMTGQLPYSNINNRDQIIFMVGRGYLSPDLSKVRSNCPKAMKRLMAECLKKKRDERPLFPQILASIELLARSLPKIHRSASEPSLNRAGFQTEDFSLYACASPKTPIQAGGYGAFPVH

With `COC(=O)COc1ccc(C=NNC(=O)Cn2c(-c3ccc(OC)cc3)nc3cc(Cl)c(Cl)cc32)cc1` [Compound 10h, Methyl-2-(4-((2-(2-(5,6-dichloro-2-(4-methoxyphenyl)-1H-benzo[d]imidazol-1-yl)acetyl)hydrazono)methyl)phenoxy)acetate], in series [1], the half-inhibitory concentration (IC50) was greater than 100 µM. In series [2] (setting [5]), the “%G0/G1” value amounted to 62.69%, the “%G2/M” value turned out to be 19.26%, the “%S” value is 18.04% and the “%Sub-G1” value stood at 10.45%. Moreover, the “effect on cell cycle progression” value in series [2] (HT29 colon cancer cell line) is “arrested cell cycle progression in HT29 colon cancer cell line at G2/M phase”. In series [3] (setting [6]), the “% of cells in early apoptosis (Q2-4)” value worked out at 2.29%, the “% of cells in late apoptosis (Q2-2)” value was 17.56%, the “% of necrotic cells (Q2-1)” value is 3.44% and the “% of viable cells (Q2-3)” value was found to be 76.71%. Also, the “total % of the cells in the apoptotic phases (Early and late)” value in series [3] (setting [6]) turned out to be 19.85%. Moreover, the apoptosis induction result in series [3] (HT29 colon cancer cell line) was “induced apoptosis”. The concentration for half-maximal inhibition (IC50) in series [4] worked out at 2.76 ± 0.15 µM.
